In the NIST ThermoML archive (doi:10.1016/j.jct.2011.06.013):
± gives the expanded uncertainty stated by the source.

How the values were obtained:
[1] = 101.33 kPa, Liquid; for viscosity: Falling or rolling sphere viscometry
[2] = xn = mol fraction of the nth substance listed; details: 101 kPa, Liquid; for viscosity: Falling or rolling sphere viscometry

OCCOCCOCCO [triethylene glycol]
[1]
Details	mass density [kg/m3]
293.15 K, Pycnometric method	1123.06 ± 6.8
298.15 K, Buoyancy - hydrostatic balance	1119.75 ± 6.7
312.96 K, Buoyancy - hydrostatic balance	1109.61 ± 6.7
313.15 K, Pycnometric method	1109.47 ± 6.7
314.15 K, Pycnometric method	1108.77 ± 6.7
333.25 K, Pycnometric method	1094.96 ± 6.6
334.85 K, Pycnometric method	1093.76 ± 6.6
334.96 K, Buoyancy - hydrostatic balance	1093.69 ± 6.6
349.25 K, Buoyancy - hydrostatic balance	1082.8 ± 6.5
352.55 K, Pycnometric method	1080.21 ± 6.5
352.85 K, Pycnometric method	1079.98 ± 6.5
364.44 K, Buoyancy - hydrostatic balance	1070.74 ± 6.4
367.25 K, Pycnometric method	1068.46 ± 6.5
381.45 K, Pycnometric method	1056.66 ± 6.4
411.65 K, Pycnometric method	1030.16 ± 6.2
413.73 K, Buoyancy - hydrostatic balance	1028.27 ± 6.2
433.75 K, Pycnometric method	1009.54 ± 6.1
461.56 K, Pycnometric method	982.12 ± 6
462.25 K, Buoyancy - hydrostatic balance	981.42 ± 5.9
476.35 K, Pycnometric method	966.87 ± 5.9

[1]
Details	viscosity [mPa·s]
298.15 K	36.82 ± 1.5
312.96 K	19.03 ± 0.79
334.96 K	9.002 ± 0.37
349.25 K	5.945 ± 0.25
364.44 K	4.131 ± 0.17
413.73 K	1.679 ± 0.069
462.25 K	0.997 ± 0.041

OCCOCCOCCO [triethylene glycol] + OCCO
mass density [kg/m3], [2]
Details	298.13 K	298.15 K	322.36 K	355.34 K	392.2 K	434.59 K	462.61 K
Buoyancy - hydrostatic balance, x2 = 0.5	1115.1 ± 6.7	–	1101.75 ± 6.6	1079 ± 6.5	1047.37 ± 6.3	1002.88 ± 6	968.72 ± 5.8
Pycnometric method, x1 = 0.5	–	1115.45 ± 6.7	–	–	–	–	–

[2], x1 = 0.5
Details	viscosity [mPa·s]
298.13 K	26.24 ± 1.1
322.36 K	10.13 ± 0.41
355.34 K	3.999 ± 0.16
392.2 K	1.946 ± 0.08
434.59 K	1.058 ± 0.043
462.61 K	0.705 ± 0.029

OCCOCCOCCO [triethylene glycol] + OCCOCCO
mass density [kg/m3], [2]
Details	298.15 K	322.43 K	355.15 K	391.02 K	432.13 K	473.1 K
Buoyancy - hydrostatic balance, x2 = 0.5	1116.28 ± 6.7	1104.5 ± 6.6	1083.98 ± 6.5	1055.33 ± 6.3	1014.59 ± 6.1	965.58 ± 5.8
Pycnometric method, x1 = 0.5	1115.61 ± 6.7	–	–	–	–	–

[2], x1 = 0.5
Details	viscosity [mPa·s]
298.15 K	32.4 ± 1.3
322.43 K	11.71 ± 0.48
355.15 K	4.468 ± 0.18
391.02 K	2.179 ± 0.089
432.13 K	1.172 ± 0.048
473.1 K	0.716 ± 0.029

OCCOCCO [diethylene glycol]
mass density [kg/m3], [1]
Details	Buoyancy - hydrostatic balance	Pycnometric method
293.15 K	1117.04 ± 6.7	1117.04 ± 6.7
298.15 K	1114.02 ± 6.7	–
312.6 K	1104.9 ± 6.6	–
313.15 K	–	1104.54 ± 6.6
314.15 K	–	1103.88 ± 6.6
329.28 K	1093.62 ± 6.6	–
333.25 K	–	1090.82 ± 6.6
334.85 K	–	1089.68 ± 6.5
344.99 K	1082.27 ± 6.5	–
349.77 K	1078.67 ± 6.5	–
352.55 K	–	1076.55 ± 6.5
352.85 K	–	1076.32 ± 6.5
366.77 K	1065.35 ± 6.4	–
367.25 K	–	1064.96 ± 6.4
381.65 K	–	1053.01 ± 6.3
411.05 K	–	1026.74 ± 6.2
413.65 K	1024.3 ± 6.2	–
434.45 K	–	1004.06 ± 6
464.05 K	973.11 ± 5.8	–

[1]
Details	viscosity [mPa·s]
293.15 K	36.52 ± 1.5
298.15 K	28.36 ± 1.1
312.6 K	15.25 ± 0.62
329.28 K	8.458 ± 0.34
344.99 K	5.34 ± 0.22
349.77 K	4.809 ± 0.2
366.77 K	3.231 ± 0.13
413.65 K	1.409 ± 0.057
464.05 K	0.789 ± 0.032

OCCOCCO [diethylene glycol] + OCCO
mass density [kg/m3], [2]
Details	298.15 K	318.55 K	322.34 K	333.45 K	353.83 K	367.15 K	392.87 K	436.08 K	462.75 K
Buoyancy - hydrostatic balance, x2 = 0.5	1112.21 ± 6.7	–	1097.38 ± 6.6	–	1075.19 ± 6.5	–	1043.14 ± 6.3	1001.82 ± 6	973.24 ± 5.8
Pycnometric method, x1 = 0.5	1112.21 ± 6.7	1099.83 ± 6.6	–	1089.92 ± 6.5	–	1064.82 ± 6.4	–	–	–

[2], x1 = 0.5
Details	viscosity [mPa·s]
298.15 K	21.12 ± 0.86
322.34 K	8.316 ± 0.34
353.83 K	3.488 ± 0.14
392.87 K	1.641 ± 0.067
436.08 K	0.885 ± 0.036
462.75 K	0.671 ± 0.027

OCCO [1,2-ethanediol]
mass density [kg/m3], [1]
Details	Buoyancy - hydrostatic balance	Pycnometric method
293.15 K	1113.58 ± 6.7	1113.58 ± 6.7
312.46 K	1100.88 ± 6.6	–
314.45 K	–	1099.52 ± 6.6
333.25 K	–	1086.3 ± 6.5
333.55 K	–	1086.09 ± 6.5
334.87 K	1085.13 ± 6.5	–
349.24 K	1074.46 ± 6.5	–
352.85 K	–	1071.71 ± 6.4
353.65 K	–	1071.1 ± 6.4
357.05 K	–	1068.48 ± 6.4
365.7 K	1061.7 ± 6.4	–
367.25 K	–	1060.47 ± 6.4
380.82 K	1049.47 ± 6.3	–
381.45 K	–	1048.95 ± 6.3
395.55 K	1037.07 ± 6.2	–
411.65 K	–	1023 ± 6.2
421.7 K	1013.93 ± 6.1	–
433.75 K	–	1002.77 ± 6
461.55 K	–	975.83 ± 5.9
464.4 K	972.98 ± 5.8	–

[1]
Details	viscosity [mPa·s]
293.15 K	21.1 ± 0.86
312.46 K	9.925 ± 0.4
334.87 K	4.949 ± 0.2
349.24 K	3.517 ± 0.14
365.7 K	2.39 ± 0.097
380.82 K	1.815 ± 0.074
395.55 K	1.419 ± 0.058
421.7 K	0.96 ± 0.039
464.4 K	0.652 ± 0.027
